These results are taken from patent US12006318B2, “Crystalline forms of C-C chemokine receptor type 4 antagonist and uses thereof” (RAPT THERAPEUTICS, INC., priority 2019, dated 2024).

A short description of data set [1]: Bioavailability of salt forms in rats. The format is in vivo. As to conditions: for bioavailability: in rats.
Data set [2] is described as follows: Hygroscopicity of the crystalline salt. The format is physicochemical.
Data set [3] in a line: Solubility (kinetic solubility) of salt forms at pH 2. The format is physicochemical. The following applies: for solubility: in pH 2 water.
Data set [4] can be described thus: Storage stability at room temperature. The following applies: after 36 months of storage at room temperature. Format: physicochemical.

The structures appear in SMILES notation. Read-outs that look alike come from different tables or passages of the source.

For the compound `C[C@H](c1ccc(Cl)cc1Cl)n1nc(C(F)(F)F)c2ncc(N3CC([C@H]4CCCN(CCO)C4)C3)nc21` [crystalline form A, 2-((R)-3-(1-(1-((R)-1-(2,4-Dichlorophenyl)ethyl)-3-(trifluoromethyl)-1H-pyrazolo[3,4-b]pyrazin-6-yl)azetidin-3-yl)piperidin-1-yl)ethan-1-ol benzene sulfonate], the “bioavailability (in words)” value in data set [1] (embodiment statement) is reported as “good bioavailability”. Moreover, the bioavailability in data set [1] (rat, in vivo, read-out: bioavailability) turned out to be 34%. Moreover, the hygroscopicity result in data set [2] was “low hygroscopicity”. Besides, the “solubility (in words)” value in data set [3] (embodiment statement) is listed as “good solubility”. Also, the solubility in data set [3] (water at pH 2, aqueous buffer) was determined as 411 µM. In addition, the stability on storage result is on record as “outstanding stability” in data set [4] and “superior stability” in data set [4] (listed as benzenesulfonic acid salt).

For `C[C@H](c1ccc(Cl)cc1Cl)n1nc(C(F)(F)F)c2ncc(N3CC([C@H]4CCCN(CCO)C4)C3)nc21.Cc1ccc(S(=O)(=O)O)cc1` [para-toluenesulfonic acid salt], the bioavailability in data set [1] amounted to 22%. Further, the “kinetic solubility as fraction of that of the HCl salt” value in data set [3] (at pH 2, relative to HCl salt) was “⅕”. The solubility in data set [3] was 190 µM. For the same compound, in data set [3] (relative to amorphous HCl salt), the “solubility compared with the amorphous HCl salt” value was “less soluble”.

As usually defined, the bioavailability is dose-corrected exposure relative to a reference, in per cent. Broadly, the solubility is the concentration that dissolves in the medium under given conditions.
